For data set [1], the target named is T1, ERα (Homo sapiens, UniProt P03372).
T1 construct: robustly degrades ER in ER-positive breast cancer cell lines; endogenous in cells; host or cells: MCF7, T47D (cell culture); MCF7 and tamoxifen-resistant MCF7 xenograft tumours in mice
T1 sequence (P03372 1-595): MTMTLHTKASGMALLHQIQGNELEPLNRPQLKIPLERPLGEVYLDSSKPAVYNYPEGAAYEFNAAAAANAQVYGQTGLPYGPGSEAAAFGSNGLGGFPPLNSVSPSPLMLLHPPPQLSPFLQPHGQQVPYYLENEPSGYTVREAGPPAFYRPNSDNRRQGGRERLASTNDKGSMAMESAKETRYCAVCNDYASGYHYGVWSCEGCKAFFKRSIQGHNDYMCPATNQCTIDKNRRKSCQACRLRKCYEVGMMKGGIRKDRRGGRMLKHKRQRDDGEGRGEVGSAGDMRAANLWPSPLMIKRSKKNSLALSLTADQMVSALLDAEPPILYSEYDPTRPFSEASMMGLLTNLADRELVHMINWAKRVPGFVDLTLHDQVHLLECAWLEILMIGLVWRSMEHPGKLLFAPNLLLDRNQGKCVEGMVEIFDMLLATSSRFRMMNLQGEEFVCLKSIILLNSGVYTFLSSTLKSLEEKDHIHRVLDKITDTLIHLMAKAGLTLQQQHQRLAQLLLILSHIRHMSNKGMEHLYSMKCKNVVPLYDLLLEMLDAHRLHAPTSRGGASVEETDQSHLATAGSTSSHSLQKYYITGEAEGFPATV
Nature of the data set: In vivo ERα degradation in MCF7 xenograft tumors (immunoblot). More on the design: species or system NOD/SCID mice. The note with it: for % ERα ↓: MCF7/estradiol model. The protocol: Approximately 18 hours after the final administration, mice were sacrificed, and MCF7 xenografts were harvested and lysed to determine ER levels by immunoblotting. […] Diet was supplemented with peanut butter to help maintain body weights.
Species: NOD/SCID female mice (Charles River, 6-7 weeks old upon arrival).
Animal handling: Axial mammary fat pad implantation of 5×10^6 MCF7 cells/200 per mouse (17β-estradiol 0.36 mg 90-day pellet implanted day before).
Dosing: Oral (gavage), once a day (QD) for 3 days (QD×3). Vehicle: 2% Tween80/PEG400 (‘PEG/Tween’).
Sampling: Terminal sacrifice was ˜18 hrs after last dose; tumors were harvested, divided and flash frozen. ERα levels were determined by immunoblotting.
Cell Lysis: flash frozen tumors were removed from −80° C. storage and placed on dry ice. RIPA lysis buffer and Halt protease inhibitors were used at 400 μl per tumor sample. A steel ball (5 mm) was placed in each sample for tissue disruption. Samples were lysed with TissueLyzer at 24 Hz for 4 minutes. The homogenization was stopped half way through the process and the block flipped over for the duration of the process. Steel beads were pulled out of the tubes and the lysates were spun down at 21,000×g for 15 minutes at 4° C. Lysates were then measured for total protein concentration by BCA (per manufacturer's protocol).
Detection of proteins by immunoblot: lysates were mixed with sample buffer and reducing agent (per manufacturer's protocol). Samples were denatured at 95° C. for 5 minutes in thermal cycler. Samples were cooled and spun down (5000×g; 1 minute) prior to loading on gel. Gels were loaded with 10 μg total protein per lane. Samples were loaded on 4-15% Criterion Tris/Glycine gels and run for 25 minutes at 250 constant volts in 1×Tris/Glycine/SDS buffer. Protein was transferred from gels to nitrocellulose with Bio-Rad Turbo on default setting. All blots were rinsed with distilled water and blocked for 1 hour at RT in 5% BSA in TBS-T (TBS with 0.1% Tween) on rocker. The blots were cut so that beta-actin and ERα can be detected from the same lane/sample.
Blots were incubated with primary antibody in 5% BSA in TBST (0.1%) overnight at 4° C. on rocker:
Blot was washed with TBST (0.1%) three times for 5 minutes on rocker at RT. Secondary antibody was added, and blots incubated at RT on rocker for 1 hour (1:18,000 anti-rabbit-HRP in TBS-T). Blots were washed 3 times in TBST (0.1%) for 5 minutes at RT on the rocker. Signal was developed with Pierce WestFemto maximum sensitivity substrate for 5 minutes and blots imaged on BioRad ChemiDoc.
Sampling: Tumors were measured twice weekly. Terminal sacrifice was ˜18 hr after last dose; tumors were harvested, divided, and flash frozen. ERα levels were determined by immunoblotting.
At study termination, the tumors were removed from the mice, and ERα levels were determined by immunoblotting the tumor homogenates.
Sampling: tumors were measured twice weekly. Terminal sacrifice was ˜18 hr after last dose; tumors were harvested, divided, and flash frozen. ERα levels were determined by immunoblotting.
(A western blot detects proteins with antibodies after separation by electrophoresis.)

For data set [2], the system named is MCF7 xenograft. Description: MCF7 orthotopic xenograft, combination with CDK4/6 inhibitor. It is filed as in vivo, NOD/SCID mice.
The subject of data set [3] is MCF7 xenograft. Description: MCF7 orthotopic xenograft, combination with PI3K inhibitor alpelisib. It counts as in vivo, NOD/SCID mice. The protocol: NOD/SCID female mice (Charles River, 6-7 weeks old upon arrival) were implanted with 17b-estradiol 0.72 mg 90-day pellets. The next day, each mouse was implanted with 5×10^6 MCF7 cells/[…] in the axial mammary fat pad. Compound administration was initiated once the tumors reached 175-200 mm^3. Diet was supplemented with peanut butter to help maintain body weights. Dosing holidays occurred on days 6, 7, 8 and 9 due to body weight loss in some animals in study arms 3 and 4. […] (FIG. 31 and Table 15).
Dosing holidays occurred on days 6, 7, 8 and 9. Error bars represent standard deviation.
The ratio of Tween 80 to PEG-400 is 0.02 g Tween 80 to 1 ml PEG-400. PEG-400 is added to a pre-aliquoted volume of Tween 80. • For alpelisib: 1% carboxymethylcellulose (CMC), 0.5% Tween 80/DI water (‘CMC/Tween’) Sampling: tumors were measured twice weekly. Terminal sacrifice was ˜18 hr after last dose. Tumor volume calculation: Tumor Volume=(width×width×length)/2, where all measurements are in mm and the tumor volume is in mm^3. Tumor Growth Inhibition (TGI) calculation: TGI (%)

The nature of data set [4]: Phase I clinical trial pharmacokinetics. The note with it: human, in vivo, po, 30 mg, 30 mg oral once daily. The source says:
A Phase I Clinical Trial with Compound (I-c) was undertaken. A traditional 3+3 dose escalation design was implemented. […] Dose increases were dependent on toxicities.
The key entry criteria for this trial were: ER+/HER2− advanced breast cancer; at least two prior endocrine therapies in any setting, and a CDK4/6 inhibitor; and up to three prior cytotoxic chemotherapy regimens.
The initial pharmacokinetic results are shown below in Table 2, as well as in FIG. 3 and FIG. 4.

Where [5] appears, read: Compound (I-c) 30 mg/kg oral QD x 28.
Where [6] appears, read: Compound (I-c) 30 mg/kg oral QD x 19.

Values joined by “and” are separate entries in the source; they are usually repeats but may differ in a detail not shown here. Equal values may be shown once. Read-outs that look alike come from different tables or passages of the source.

Turning to `O=C1CC[C@H](N2Cc3cc(N4CCN(CC5CCN(c6ccc([C@@H]7c8ccc(O)cc8CC[C@@H]7c7ccccc7)cc6)CC5)CC4)ccc3C2=O)C(=O)N1` [Compound (I-c), (3S)-3-[5-[4-[[1-[4-[(1R,2S)-6-hydroxy-2-phenyl-tetralin-1-yl]phenyl]-4-piperidyl]methyl]piperazin-1-yl]-1-oxo-isoindolin-2-yl]piperidine-2,6-dione], the “reduction of tumor ERα levels vs vehicle” value in data set [1] (10 mg/kg p.o. once daily x 3 days, ~18 h after last dose) was “up to 95%”; in data set [1] (3, 10 and 30 mg/kg daily oral, 28 days (all doses), at study termination), > 94% and > 90%. The “% ERα ↓” value in data set [1] (3 mg/kg) worked out at 95%; in data set [1] (10 mg/kg), 97%; in data set [1] (30 mg/kg) it was 94%. In addition, the “Day 28 Tumor volume (mean ± SD)” value in data set [2] (setting [5]) is reported as 170 ± 62 mm^3. Also, the “TGI (% vehicle)” value in data set [2] (setting [5]) stood at 105 % vehicle; in data set [3] (setting [6]) it was 95 % vehicle. Moreover, the “tumor growth inhibition (TGI)” value in data set [2] (single agent 30 mg/kg oral QD x 28) is recorded as 105%; in data set [3] (single agent 30 mg/kg oral once daily, 19 days, dosing holidays days 6-9), 95%. The “Day 19 Tumor Volume (mean ± SD)” value in data set [3] (setting [6]) was 207 ± 62 mm^3. Besides, the AUC in data set [4] (Phase I, read-out: Mean Day 1 AUCTAU) is 1690 ng·h/mL; in data set [4] (calculated using imputed 24 hour values, read-out: Mean Day 15 AUCTAU), 4100 ng·h/mL. In addition, the highest concentration (Cmax) was 109 ng/mL in data set [4] (Phase I, read-out: Mean Day 1 Cmax) and 224 ng/mL in data set [4] (Phase I, read-out: Mean Day 15 Cmax).

The term Cmax denotes the maximum level reached in the sampled fluid or tissue.

The record behind these values is patent US20220193072A1, “METHODS OF TREATING BREAST CANCER WITH TETRAHYDRONAPHTHALENE DERIVATIVES AS ESTROGEN RECEPTOR DEGRADER” (Arvinas Operations, Inc., priority 2020, published 2022).
